The values below come from patent US7507716B2, “Method for treating pain with prolactin antagonists” (Board of Regents, The University of Texas System, priority 2005, dated 2009).

Data set [1] in a line: Plasma estradiol levels after s.c. estradiol benzoate. Conditions: OVX rats, mean±SEM. It is filed as in vivo, rat.
For data set [2], the system named is TG neurons. The experiment in a line: PRL release from cultured TG neurons (RIA). Conditions: 300 nM capsaicin or 25 mM KCl; for release of immunoreactive PRL: neurons from OVX rats cultured in the absence of E2; for PRL released from TG neurons: neurons of proestrous rats cultured with 50 nM E2, 15 min. The class given is cell-based, rat. As for the experimental part:
PRL is known to be released from cells of the anterior pituitary (Zacur et al. 1976) and from extrapituitary sites (Ben-Jonathan et al., 2002; Zinger et al., 2003; Torner et al., 2004). To determine whether PRL protein is present in a releasable pool in TG sensory neurons, cultured TG neurons derived either from proestrous rats (cultured in the presence of 50 nM E2) or from OVX rats (cultured without E2) were exposed to 300 nM capsaicin or 25 mM KCl buffer. The results obtained from these experiments are depicted in FIG. 2D, which indicate that a substantial amount of PRL is released from TG neurons of proestrous rats cultured in the presence of E2 upon stimulation with either capsaicin (158±12% of vehicle) or KCL (154±16% of vehicle). […] Data are presented as mean % of basal release±SEM (n=6/group, *=p<0.05 and **=p<0.01; one-way ANOVA with Bonferroni's post hoc test).
Rat trigeminal ganglia (TG) primary cultures: The TG from ovariectomized or intact female rats were quickly removed after decapitation and neuronal cultures were prepared as previously described (Fehrenbacher et al., 2005; Patwardhan et al., 2005). The trypsin treatment was omitted in TG cultures prepared for electrophysiological recording and Ca^2+ imaging. Cells were plated on 24 well Poly-D-Lysine coated plates (for iCGRP experiments), 6 well Poly-D-Lysine plates (for PRL release experiments), Poly-D-Lysine/laminin-coated coverslips (for single cell studies) or 10 cm plates (for phosphorylation experiments), respectively. The TG cultures were maintained at 37° C. and 5% CO2. […] The media were replaced at the end of 24 h and then 48 h later.
PRL Release Experiments: These experiments were performed at day 5 with TG cultures from OVX or intact female rats using Krebs buffer (NaCl 135 mM, KCl 3.5 mM, MgCl2 1 mM, NaH2PO4 1 mM, CaCl2 2.5 mM, BSA 0.1%, dextrose 3.3 mM, ascorbic acid 0.1 mM, HEPES 10 mM, thiorphan 16 μM; pH 7.4). After two initial washes, a 15 min baseline sample was collected. Cells were then exposed to 300 nM capsaicin (Sigma) or 25 mM KCl and incubated at 37° C. for an additional 15 min followed by collection of the samples. The 1 ml collected samples were lyophilized and resuspended in 250 ul of water and immediately frozen in −80° C. Frozen samples were sent to Dr. A. F. Parlow (NHPP, Harbor-UCLA) to have levels of PRL determined by a well-validated radioimmunoassay (RIA) with sensitivity range from 1-100 ng/ml. Results are representative of 6 independent experiments.

Data set [3] addresses T1, PRL-R (Rattus norvegicus, UniProt P05710).
T1 construct: endogenous in cells; host or cells: primary rat trigeminal ganglion neurons
T1 sequence (P05710 20-610): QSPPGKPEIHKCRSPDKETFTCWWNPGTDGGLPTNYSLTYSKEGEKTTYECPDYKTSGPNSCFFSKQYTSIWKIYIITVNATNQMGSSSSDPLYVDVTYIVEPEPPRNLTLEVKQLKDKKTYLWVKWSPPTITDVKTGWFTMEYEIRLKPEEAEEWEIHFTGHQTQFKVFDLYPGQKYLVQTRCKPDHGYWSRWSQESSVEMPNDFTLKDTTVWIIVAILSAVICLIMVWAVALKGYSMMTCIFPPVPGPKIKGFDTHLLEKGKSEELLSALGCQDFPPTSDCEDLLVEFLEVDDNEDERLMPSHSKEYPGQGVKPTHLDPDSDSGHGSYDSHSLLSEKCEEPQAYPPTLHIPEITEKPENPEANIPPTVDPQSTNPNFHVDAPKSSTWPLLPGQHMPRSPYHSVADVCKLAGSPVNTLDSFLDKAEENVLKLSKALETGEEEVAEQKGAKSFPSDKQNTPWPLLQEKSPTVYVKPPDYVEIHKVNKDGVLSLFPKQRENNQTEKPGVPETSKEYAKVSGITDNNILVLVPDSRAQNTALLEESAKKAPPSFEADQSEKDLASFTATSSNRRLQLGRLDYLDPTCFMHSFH
The experiment in a line: Calcium imaging, block of PRL potentiation by PRL-R antagonist. It is filed as cell-based. The note with it: for block of PRL potentiation of capsaicin-evoked Ca2+ influx: antagonist 800 nM co-treated with PRL 40 nM, capsaicin 30 nM. As for the experimental part:
To determine whether PRL augmentation of capsaicin responses occurs through the PRL-R (i.e., whether PRL-signaling could account for the observed effects of PRL on nociceptors sensitization), Ca^2+ imaging experiments were performed on neurons in the presence of a molar excess of a full PRL-R antagonist (Δ 1-9-G129R-hPRL) (Bernichtein et al., 2003; Goffin et al., 2005). Cultured neurons were treated as described in the previous experiment. In addition, neurons were co-treated with PRL and the PRL-R antagonist 1-9-Δ-G 129R-hPRL (800 nM). […] Data are presented as mean % of vehicle±SEM (n=19-40, *=p<0.05; two-way ANOVA).
Calcium Imaging: TG cells cultured on coverslips were loaded with the cell-permeable calcium sensitive dye FURA 2-AM (1 ug/ml) (Molecular Probes, Eugene, Oreg.) for 30 min at 37° C. in Standard External Solution (SES) of the following composition in mM: 140 NaCl, 5 KCl, 2 CaCl2, 1 MgCl2, 10 glucose and 10 HEPES, pH 7.4. Coverslips containing cells were placed in a chamber with constant infusion of SES. Images were captured by a Nikon Eclipse TE-2000 microscope fitted with a 20×/NA 0.75 Fluor objective. Fluorescence images were collected in 5 sec intervals throughout the experiment, analyzed, and the F340/F380 ratio calculated by the Methafluor Software (MethaMorph, Web Universal Imaging Corporation, Downingtown, Pa.). Capsaicin was delivered locally to the cells, whereas PRL was delivered into the bath solution. The magnitude of calcium influx was determined by subtracting the averaged baseline 30 sec prior to the capsaicin stimulus from the peak achieved by the capsaicin stimulation for each cell (ratiometric method, ΔF340/F380).

Data set [4] relates to TG neurons. Nature of the data set: Patch clamp, capsaicin-induced currents (Icap). The class given is cell-based, rat. The method, then:
Since application of PRL rapidly increases capsaicin-induced calcium accumulation and neuropeptide release, the role of PRL in modulating capsaicin-induced currents (Icap) was examined. TRPV1 desensitization of cultured TG neurons was induced through the repeated application of 100 nM capsaicin to the cultures (Vellani et al., 2001; Bonnington and McNaughton, 2003). The sub-maximal concentration of capsaicin used was effective in inducing desensitization and permitted the investigation PRL-evoked re-sensitization or further sensitization of TRPV1. […] Data are presented as mean±SEM of PRL-treated ΔIcap (3rd Icap-2^ndIcap) normalized to vehicle treated ΔIcap, (n=8-12/group, *=p<0.05 and **=p<0.01; two-way ANOVA). […] Acutely dissociated TG neurons from female rats were locally pretreated with vehicle or PRL (40 nM) for 60 sec, washed for 60 sec and subjected to a single capsaicin pulse (40 sec, 0.1 nM-5 μM). Data are shown as mean±SEM (n=12-20/group, *=p<0.05 and ***=p<0.001 vehicle vs. PRL; two-way ANOVA). FIGS. 5C and 5D depict representative traces of Icap recordings from intact (FIG. 5C) and OVX (FIG. 5D) female rat TG neurons. Concentration of applied CAP and PRL are indicated. The duration CAP and PRL treatment was 30 sec and 60 sec, respectively. The magnitude of the second capsaicin-evoked inward currents (Icap) peak was subtracted from the third Icap peak to calculate the difference (ΔIcap). Data were normalized to the vehicle treated ΔIcap.
(§1) Patch Clamp Electrophysiology: All recordings were performed in whole-cell voltage-clamp (Vh=−60 mV) configuration. Recordings were acquired at 22-24° C. from the somata of neurons (15-45 pF) using an Axopatch200B amplifier and pCLAMP9.0 software (Axon Instruments, Union City, Calif.). Data were filtered at 0.5 kHz and sampled at 2 kHz. Borosilicate pipettes (Sutter, Novato, Calif.) were polished to resistances of 3-5 MΩ in pipette solution. Access resistance was compensated (40-80%) to 7-10 MΩ values when appropriate. Cell diameters were calculated using d=√[100*Cm/π], where d (μm) is cell diameter and Cm (pF) is membrane capacitance.
Standard external solution (SES) had the composition as described above. […] Drugs were applied using a fast, computer controlled pressure-driven 8-channel system (ValveLink8; AutoMate Scientific, San Francisco, Calif.).
FIG. 11B summarizes the effect of adding rhPRL on Icap of cultured TG neurons from male, female and OVX female rats. Number of recorded neurons and neurons in which effects were observed are indicated above the bars. The recordings were performed in whole-cell voltage clamp c(Vh=−60 mV) configuration. Solutions are SES and SIS.

Data set [5] has as its target T1, PRL-R. The experiment in a line: Patch clamp Icap, G129R-PRL against PRL sensitization. It is filed as cell-based. The method, then:
as §1
Since it is possible that this effect is observed only in full PRL-R antagonists, it is of interest to determine the effectiveness of partial PRL-R antagonists in blocking PRL-mediated nociceptor sensitization. To this end, the ability of the partial PRL […] (G129R-PRL) to inhibit PRL-induced increase in sensitivity to capsaicin was assessed. FIG. 10 summarizes the effect of administering PRL, human G129R-PRL, or their combination, on Icap. G129R-PRL acts as either a partial or full antagonist, depending on the cellular context of the experimental system (Goffin, Bernichtein et al. 2003).

`C[C@]12CC[C@@H]3c4ccc(OC(=O)c5ccccc5)cc4CC[C@H]3[C@@H]1CC[C@@H]2O` [17-beta-estradiol 3-benzoate]: the results for the plasma estradiol levels in data set [1] (2 μg/kg s.c. daily for 10 days), in data set [1] (20 μg/kg s.c. daily for 10 days) and in data set [1] (80 μg/kg s.c. daily for 10 days) were 1.89 ± 0.36 pg/mL, 59 ± 17.1 pg/mL and 110 ± 36.6 pg/mL, respectively.
Regarding `[Cl-].[K+]` [KCL, KCl], in the data set on TG neurons [2], the “release of immunoreactive PRL” value is given as “no detectable release” and the “PRL released from TG neurons” value is 154±16 % of vehicle.
For the molecule `COc1cc(CNC(=O)CCCC/C=C/C(C)C)ccc1O` [capsaicin], in the data set with TG neurons [2], the “release of immunoreactive PRL” value is listed as “no detectable release” and the “PRL released from TG neurons” value was 158±12 % of vehicle.

B1: Δ 1-9-G129R-hPRL: full PRL-R antagonist, human PRL variant synthesized as described (Bernichtein et al., 2003; Goffin et al., 2005) (protein)
chain: LPICPGGAARCQVTLRDLFDRAVVLSHYIHNLSSEMFSEFDKRYTHGRGFITKAINSCHTSSLATPEDKEQAQQMNQKDFLSLIVSILRSWNEPLYHLVTEVRGMQEAPEAILSKAVEIEEQTKRLLERMELIVSQVHPETKENEIYPVWSGLPSLQMADEESRLSAYYNLLHCLRRDSHKIDNYLKLLKCRIIHNNNC
Regarding B1, the “effect of antagonist on its own on capsaicin-evoked Ca2+ influx” value with PRL-R [3] (800 nM, without PRL) is “had no effect on its own”. The “block of PRL potentiation of capsaicin-evoked Ca2+ influx” value with PRL-R [3] was “significantly blocked PRL potentiation of capsaicin-evoked Ca^2+ influx”; in the data set with PRL-R [3] (listed as 1-9-Δ-G129R-hPRL), “significantly blocked”.

B2: rhPRL: recombinant human PRL (protein, UniProt P01236 29-227, looked up)
Prolactin: LPICPGGAARCQVTLRDLFDRAVVLSHYIHNLSSEMFSEFDKRYTHGRGFITKAINSCHTSSLATPEDKEQAQQMNQKDFLSLIVSILRSWNEPLYHLVTEVRGMQEAPEAILSKAVEIEEQTKRLLEGMELIVSQVHPETKENEIYPVWSGLPSLQMADEESRLSAYYNLLHCLRRDSHKIDNYLKLLKCRIIHNNNC
In the case of B2, in the data set on TG neurons [4] (cultured TG neurons from male and female rats, capsaicin 100 nM (FIG. 11A)), the “sensitization of capsaicin-evoked Icap” value was “is able to sensitize cultured neurons isolated from male and female TG neurons”. Moreover, the “concentration dependence of Icap increase” value in the data set with TG neurons [4] (male and female TG neurons, varying rhPRL concentrations) is “dose-dependent increases in Icap”.

B3: G129R-PRL: human prolactin variant, partial or full PRL-R antagonist / partial agonist; sequence in FIG. 9B (SEQ ID NO: 48) (protein, listed as Homo sapiens)
chain: LPICPGGAARCQVTLRDLFDRAVVLSHYIHNLSSEMFSEFDKRYTHGRGFITKAINSCHTSSLATPEDKEQAQQMNQKDFLSLIVSILRSWNEPLYHLVTEVRGMQEAPEAILSKAVEIEEQTKRLLERMELIVSQVHPETKENEIYPVWSGLPSLQMADEESRLSAYYNLLHCLRRDSHKIDNYLKLLKCRIIHNNNC
As to B3, in the data set with PRL-R [5] (3 of 3 examined neurons), the “effect on Icap in the absence of rPRL” value is recorded as “displayed partial agonist effects”. Further, the “reduction of the PRL effect on Icap” value with PRL-R [5] (G129R-PRL 16 nM co-applied with rPRL 4 nM, observed in 6 of 7 neurons) is recorded as “about 40%”.
